The nature of this data set: Inhibition of micellar solubility of cholesterol assessed as cholesterol solubility at 10 g/L using [4-14C]cholesterol incubated at 37 degC for 1 hr by liquid scintillation counting method. Also noted: scale not given: the % may be the effect or the level left. It is filed as physicochemical.

In ChEMBL document CHEMBL3393032, “Synthesis of oolongtheanins and their inhibitory activity on micellar cholesterol solubility in vitro” (Bioorg Med Chem Lett, 2015) one finds Activity data, which are given here for 2 molecules.

Turning to `O=C1C(O)=C[C@@]2([C@H]3Oc4cc(O)cc(O)c4C[C@H]3O)Oc3c(O)c(O)cc([C@H]4Oc5cc(O)cc(O)c5C[C@H]4O)c3[C@@H]12`, the Activity was found to be 26.39%. With `O=C(O[C@@H]1Cc2c(O)cc(O)cc2O[C@@H]1c1cc(O)c(O)c2c1[C@H]1C(=O)C(O)=C[C@@]1([C@H]1Oc3cc(O)cc(O)c3C[C@H]1OC(=O)c1cc(O)c(O)c(O)c1)O2)c1cc(O)c(O)c(O)c1`, the Activity is 1.4%.
